target: Autotaxin (Homo sapiens, UniProt Q13822); assay: Inhibition of C-terminal FLAG-tagged human recombinant autotaxin using synthetic substrate FS-3 at 10 uM measured every 2 mins by FRET assay relative to control

inhibition	SMILES
10%	COc1ccc(CNC(=O)C(C)(C)NC(=O)c2cc(-c3ccoc3)nc3ccccc23)c(OC)c1
10%	COc1ccc(CNC(=O)N2CC(O)C(N3CCN(c4ccccc4F)CC3)C2)cc1 (configuration not stated)
30%	O=C(O)[C@@H](Cc1ccc(O)cc1)/N=C1\S/C(=C\c2ccc(-c3cccc(Cl)c3)o2)C(=O)N1c1ccccc1
30%	CC(O)C(NC(=O)c1cccnc1N1CCC(CCCC2CCN(C(=O)CCC(=O)c3ccccc3)CC2)CC1)C(N)=O (configuration not stated)
20%	CC(O)C(NC(=O)c1ccc(N2CCCN(C(=O)CCC(=O)c3ccccc3)CC2)nc1)C(N)=O (configuration not stated)
20%	COc1ccc(CCn2c(C(C)Oc3ccccc3)nc3cc(C(=O)NCCOCCO)ccc32)cc1OC (configuration not stated)
10%	Cc1ccc2[nH]c3nc(SCC(=O)NCc4ccc5c(c4)OCO5)nnc3c2c1
0%	CCCCCCOC(=O)Oc1ccc(/C=N/c2ccc(OCC)cc2)cc1
0%	COc1cccc(/C=C2/S/C(=N/c3ccccc3)N(Cc3ccccc3)C2=O)c1O
0%	CC(C)c1ccc(OCC(=O)N2CCC(CCCC3CCN(c4ccc(C(=O)N5CCCC5C(N)=O)cn4)CC3)CC2)cc1 (configuration not stated)
10%	CCC(COc1ccc2oc3ccccc3c2c1)NCCC(=O)N(CC(N)=O)Cc1ccc(C)cc1 (configuration not stated)
10%	O=C1/C(=C\c2ccc(OCc3cccc4ccccc34)cc2)SC(=S)N1c1cccc(F)c1
30%	C=CCOC(=O)C1=C(C)NC(SCC(=O)Nc2cccc(Cl)c2)=C(C#N)C1c1ccc(O)c(OC)c1 (configuration not stated)
20%	COc1ccc(CNC(=O)c2cc(-c3ccc(OC)c(OC)c3)nc3ccc(CNC(=O)c4cccc(Cl)c4)cc23)c(OC)c1
10%	COc1cc(/C=N/NC(=O)c2cc(-c3ccc(OC)c(OC)c3)n[nH]2)ccc1O
0%	Cc1ccc(C(=O)Nc2ccccc2C(=O)O)cc1S(=O)(=O)Nc1ccc(Br)cc1
10%	COc1ccc(-c2cc(C(=O)N/N=C/c3cc(OC)c(O)c(OC)c3)[nH]n2)cc1OC
30%	O=C(NCC(O)CO)c1ccc2c(c1)nc(COCc1ccccc1)n2Cc1ccco1 (configuration not stated)
0%	O=C(Cc1ccccc1OC(=O)Cn1c(=O)sc2ccccc21)Cn1c(=O)sc2ccccc21
20%	COCCOCC(=O)N1CCN(c2ccc(C(=O)NC(C(N)=O)C(C)O)cn2)CC1C (configuration not stated)
30%	COc1cc(CCNC(=O)c2ccc3c(c2)nc(-c2cccc(C)c2)n3CCc2ccc(OC)c(OC)c2)cc(OC)c1
10%	O=C(NCC(O)CO)c1ccc2c(c1)nc(CN1CCC(CCO)CC1)n2CCc1ccccc1 (configuration not stated)

inhibition	SMILES
0%	C#CCN1C(=O)S/C(=C/c2ccc(OCc3ccc4ccccc4c3)c(OCC)c2)C1=O
20%	COc1cc(/C=c2/sc3n(c2=O)NC2(c4ccccc4)N(C)C(=O)N(C)C2(c2ccccc2)N=3)ccc1O (configuration not stated)
10%	O=C1c2ccccc2-c2ccc(S(=O)(=O)Nc3ccc(S(=O)(=O)Nc4nccs4)cc3)cc21
30%	CC(C)Cc1ccc(C(C)C(=O)N2CCN(c3ncccc3C(=O)NC(C(N)=O)C(C)O)CC2C)cc1 (configuration not stated)
20%	COc1ccccc1C(COc1ccccc1C)NCCC(=O)N(CC(N)=O)Cc1ccc(C)cc1 (configuration not stated)
20%	COCCNS(=O)(=O)c1ccc2c(c1)NC(=O)C(CO)N2C(=O)CN1CCC(N2CCCCC2)CC1 (configuration not stated)
30%	Cc1ccccc1C(=O)NCC1CCC(c2cc3n(n2)CCN3C(=O)COc2ccccc2)CC1 (configuration not stated)
30%	CC(C)C(=O)NC(Cc1ccc(OCc2ccccc2)cc1)C(=O)NCCCN(C)c1ccccc1 (configuration not stated)
0%	CCn1c2ccccc2c2cc(/C=C3\SC(=S)N([C@H](Cc4ccc(O)cc4)C(=O)O)C3=O)ccc21
30%	COc1cccc(CCNC(=O)c2ccc3c(c2)nc(-c2cc(OC)c(OC)c(OC)c2)n3CCc2ccc(OC)c(OC)c2)c1
0%	CCc1nc2ccc(C(=O)N3CCN(C(C)=O)CC3)cn2c1N(C)C(=O)COc1ccccc1
30%	COc1ccccc1/C=C1\SC(=O)N(CCC(=O)N2c3ccccc3Sc3ccc(Cl)cc32)C1=O
20%	CCn1c(CN2CCc3ccccc3C2)nc2cc(C(=O)NCC(O)CO)ccc21 (configuration not stated)
20%	O=C(O)c1cc(-c2ccc(/C=C3/SC(=S)N(CCc4ccccc4)C3=O)o2)ccc1Cl
10%	Cc1ccc(-c2ccc(-c3nnc(CCCC(=O)NC(CO)CO)o3)cc2)cc1
10%	CC(CNC(=O)CCCn1ncn2c(cc3occc32)c1=O)c1ccccc1 (configuration not stated)
10%	COc1cccc(CNC2CC(=O)N(c3ccc(N4C(=O)CC(NCc5cccc(OC)c5OC)C4=O)cc3)C2=O)c1OC (configuration not stated)
0%	Cc1cc(C)cc(CC(=O)N2CCN(c3ncccc3C(=O)NC(C(N)=O)C(C)O)CC2)c1 (configuration not stated)
0%	COc1cc(/C=C2/SC(=S)N(Cc3ccccc3)C2=O)ccc1OC(=O)c1cccs1
20%	CC(CC(=O)NCCc1ccncc1)NC(=O)c1cc(-c2ccccc2)nc2ccccc12 (configuration not stated)
0%	Cc1ccc(NC(=O)CN2C(=O)N/C(=C/c3ccc(OCc4cccc([N+](=O)[O-])c4)cc3)C2=O)cc1
10%	CC(=O)CCC(=O)N1CCN(c2ccc(C(=O)NC(C(N)=O)C(C)O)cn2)CC1C (configuration not stated)

inhibition	SMILES
10%	COc1ccc(/C=c2/sc3n(c2=O)NC2(c4ccccc4)N(C)C(=O)N(C)C2(c2ccccc2)N=3)cc1O (configuration not stated)
0%	N#CC1CCCC(NC(=O)c2cccc(S(=O)(=O)Nc3ccc(Br)cc3)c2)C1 (configuration not stated)
10%	COc1ccc(CCn2c(COc3ccccc3)nc3cc(C(=O)NCC(O)CO)ccc32)cc1OC (configuration not stated)
20%	COC(=O)c1ccc(/C=C2/Sc3ccccc3N(Cc3ccccc3F)C2=O)cc1
20%	COc1cccc(CCNC(=O)c2ccc3c(c2)nc(-c2cc(OC)cc(OC)c2)n3CCc2ccc(OC)c(OC)c2)c1
10%	CC(O)C(NC(=O)c1cccnc1N1CCN(C(=O)CCC(=O)c2ccccc2)CC1)C(N)=O (configuration not stated)
10%	CC(O)C(NC(=O)c1ccc(N2CCN(C(=O)Cc3ccc(O)cc3)CC2)nc1)C(N)=O (configuration not stated)
30%	Cn1cc(S(=O)(=O)N2CCc3ccccc32)cc1C(=O)N1CCC(Cc2ccccc2)CC1
10%	O=C(NCCOCCO)c1ccc2c(c1)nc(CN1CCC(N3CCCC3)CC1)n2CC1CC1
20%	Cc1cccc(S(=O)(=O)N2CCn3nc(C4CCC(CNC(=O)CC(C)C)CC4)cc32)c1 (configuration not stated)
10%	COc1cc(/C=N/NC(=O)c2ccc(CN3C(=O)c4cccc5cccc3c45)cc2)cc(Br)c1O
0%	COc1ccc(-c2cc(C(=O)NC(C)(C)C(=O)NCCN(C(C)C)C(C)C)c3ccccc3n2)cc1
30%	COc1cc(C2CC(=O)NC(SCc3ccccc3)=C2C#N)ccc1O (configuration not stated)
10%	CC(=O)N1c2ccc(NC(=O)c3ccc(Cl)cc3Cl)cc2C2(c3ccccc3)N(C(C)=O)c3ccc(NC(=O)c4ccc(Cl)cc4Cl)cc3C12c1ccccc1 (configuration not stated)
20%	COc1cccc(-c2ccc(C(=O)N(CCN)Cc3ccc(NC(C)=O)cc3)cn2)c1
20%	CC1CCC(C(C)C)C(OCC(=O)N2CCCN(c3ncccc3C(=O)N3CCCC3C(N)=O)CC2)C1 (configuration not stated)
0%	Cc1cc2cc(C#N)c(SCC(=O)Nc3ccc(N(C)C)cc3)nc2cc1C
30%	COCCNS(=O)(=O)c1ccc2c(c1)NC(=O)C(Cc1ccccc1)N2C(=O)CNCc1ccc(OC)cc1 (configuration not stated)
10%	CCOc1cc(/C=C2/NC(=O)N(Cc3cccc(F)c3)C2=O)cc(Cl)c1OCC
30%	O=C(O)CN1C(=O)/C(=C\c2ccc(OCc3cccc4ccccc34)cc2)SC1=S
0%	CC[C@@H]1CN2CCc3cc(OC)c(OC)cc3[C@@H]2C[C@@H]1C[C@@H]1c2cc(OC)c(OC)cc2CCN1C(=O)COCC(=O)N1CCc2cc(OC)c(OC)cc2[C@@H]1C[C@H]1C[C@H]2c3cc(OC)c(OC)cc3CCN2C[C@@H]1CC
20%	COc1ccc(-c2cc(C(=O)NC(C)(C)C(=O)NCCCOC(C)C)c3ccccc3n2)cc1C

inhibition	SMILES
10%	COc1cc(/C=N/NC(=O)c2cc(-c3ccc4ccccc4c3)n[nH]2)ccc1O
10%	CCCCCC(C)(C)c1ccc(Oc2ccc(NC(=O)c3cc(/N=N/c4cccc(OC)c4)c4ccccc4c3O)cc2)cc1
30%	COc1cc(C2CC(=O)NC(SCC(=O)Nc3c(C)cc(C)cc3C)=C2C#N)ccc1OCc1ccccc1 (configuration not stated)
0%	O=C(O)CN1C(=O)/C(=C/c2cccc(Oc3ccccc3)c2)S/C1=N\c1ccccc1
30%	CC(C)c1ccc(OCC(=O)N2CCN(c3ncccc3C(=O)N3CCCC3C(N)=O)CC2C)cc1 (configuration not stated)
10%	COc1ccc(-c2nc3cc(C(=O)NCCOCCO)ccc3n2CCc2ccc(OC)c(OC)c2)c(OC)c1
10%	N#CC1=C(SCC(=O)Nc2ccc(Br)cc2)NC(=O)CC1c1ccc(O)cc1 (configuration not stated)
30%	COc1ccc(CCn2c(-c3cc(OC)c(OC)c(OC)c3)nc3cc(C(=O)NCCc4ccccc4)ccc32)cc1OC
30%	CCOc1cc(CC2SC(N3CCN(C4=NC(=O)C(Cc5ccc(O)c(OCC)c5)S4)CC3)=NC2=O)ccc1O (configuration not stated)
0%	CCCCCCOc1ccc(/C=N/c2ccc(C)cc2)cc1
20%	COc1ccc(CCn2c(-c3cc(OC)c(OC)c(OC)c3)nc3cc(C(=O)NCCOCCO)ccc32)cc1OC
0%	O=C(O)c1cccc(/N=C2\S/C(=C\c3ccc(-c4cccc(Cl)c4)o3)C(=O)N2Cc2ccccc2)c1
30%	COc1ccc(OC)c(NC(=S)N2CCn3cccc3C2c2ccc(OC)c(OC)c2)c1 (configuration not stated)
10%	CCN(CCCCOC(=O)c1ccc(OC)c(OC)c1)C(C)Cc1ccc(OC)cc1 (configuration not stated)
20%	CCN(C(=O)c1ccc(/C=C2\S/C(=N\c3ccccc3)N([C@H](C)C(=O)O)C2=O)cc1)c1ccccc1
0%	O=C(Cn1c(=O)sc2ccccc21)OCc1cccc(Oc2ccccc2)c1
10%	COCCCn1c(CN2CCN(c3ccccc3F)CC2)nc2cc(C(=O)NCC(O)CO)ccc21 (configuration not stated)
30%	N#CC1=C(SCC(=O)Nc2ccc(Br)cc2)NC(=O)CC1c1cccc(O)c1 (configuration not stated)
0%	CCCCCCOc1ccc(/C=N/c2ccc(/N=C/c3ccc(OCCCCCC)cc3)c(Cl)c2)cc1

SMILES	inhibition
O=C(NCc1ccc(NC(=O)c2cn(Cc3ccccc3)c3ccccc23)cc1)c1cnc2cc(C(F)(F)F)ccc2c1O	0%
O=C(O)[C@@H](Cc1ccccc1)N1C(=O)/C(=C/c2cccc(Oc3ccc(Cl)cc3)c2)SC1=S	10%
